From patent publication US9186338B2, “Solubility enhancer and use thereof” (priority 2005, dated 2015)

Description: In accordance with yet another aspect of the present invention, there is provided a method for determining the solubility of said drugs, wherein the method comprises incremental addition of said drugs taken from stock to said solubility enhancer, shaking the resultant in an ultrasonic bath to obtain clear solution and determining the solubility.
The solutions of Isotretinoin were made by incremental addition technique, i.e. by adding portions of the drug from pre-weighed stock (Isotretinoin) to known volume of the alkanamide solution and shaking in an ultrasonic bath till the solution was clear. Thereafter the second weight was recorded & solubility was determined.
(§1) Thereafter the second weight was recorded & solubility was determined.
as §1

## CC1=C(/C=C/C(C)=C/C=C/C(C)=C\C(=O)O)C(C)(C)CCC1 [Isotretinoin]
  amount of drug solubilized in 1 ml of Hexanamide: 206 mg
  amount of drug solubilized in 1 ml of Octanamide: 139.2 mg
  solubility in Hexanamide: 20.6 % w/v
  solubility in Octanamide: 13.92 % w/v
